Columns and labels:
Type in all cases: biochemical
Human IDO2 His-Tag = molecular target: T1, Human IDO2 His-Tag (Homo sapiens, UniProt Q6ZQW0); experiment: IDO2 Inhibitor Screening Assay (BPS Bioscience kit, absorption at 321 nm); details: room temperature, 3 hours
T1 construct: purchased BPS Bioscience
T1 sequence (Q6ZQW0 1-407): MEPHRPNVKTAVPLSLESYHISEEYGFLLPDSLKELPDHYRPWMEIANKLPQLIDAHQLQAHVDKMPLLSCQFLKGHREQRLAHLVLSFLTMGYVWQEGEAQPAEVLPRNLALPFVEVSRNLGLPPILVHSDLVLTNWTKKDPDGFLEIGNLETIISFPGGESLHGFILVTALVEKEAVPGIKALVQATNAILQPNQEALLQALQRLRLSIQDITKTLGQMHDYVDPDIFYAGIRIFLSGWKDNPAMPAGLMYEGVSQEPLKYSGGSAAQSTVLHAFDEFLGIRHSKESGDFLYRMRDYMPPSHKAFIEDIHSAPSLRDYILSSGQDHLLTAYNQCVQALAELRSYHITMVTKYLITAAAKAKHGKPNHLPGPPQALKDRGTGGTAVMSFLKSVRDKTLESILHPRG
Description: To evaluate the selectivity of IDO inhibition for Compounds Nos. D42 and D46, an assay to measure activity against IDO2 was performed. The IDO2 Inhibitor Screening Assay kit (BPS Bioscience) was used for IDO2 test. The protocol is similar to IDO1 assay. IDO2 reaction solution (90 μl) was aliquoted into each well of a 96-well plate. 5 μl of compound solution in 10% DMSO was added to each well. 5 μl 10% DMSO was added to the positive control and blank wells. Human IDO2 His-Tag was diluted in 1×IDO2 Assay buffer at 400 ng/μl. The reaction was initiated by adding 5 μl diluted IDO2. 1×IDO2 assay buffer to the blank well. After incubating at room temperature for 3 hours, the absorption was measured at the wavelength of 321 nm. The IC50 was calculated as described for IDO2.
The test compound inhibition was measured as X-fold. The control solution (DMSO) was measured as Y-fold. The relative activity, I, was the ratio of former to later, i.e. X/Y, expressed in percentile. The IC50 was the concentration of the compounds when X/Y equals 50 and calculated based on the dose-response curve.

Human TDO His-Tag = molecular target: T2, Human TDO His-Tag (Homo sapiens, UniProt P48775); experiment: TDO Inhibition Screening Assay (BPS Bioscience kit, absorption at 321 nm); details: room temperature, 1.5 hours
T2 construct: purchased BPS Bioscience
T2 sequence (P48775 whole entry): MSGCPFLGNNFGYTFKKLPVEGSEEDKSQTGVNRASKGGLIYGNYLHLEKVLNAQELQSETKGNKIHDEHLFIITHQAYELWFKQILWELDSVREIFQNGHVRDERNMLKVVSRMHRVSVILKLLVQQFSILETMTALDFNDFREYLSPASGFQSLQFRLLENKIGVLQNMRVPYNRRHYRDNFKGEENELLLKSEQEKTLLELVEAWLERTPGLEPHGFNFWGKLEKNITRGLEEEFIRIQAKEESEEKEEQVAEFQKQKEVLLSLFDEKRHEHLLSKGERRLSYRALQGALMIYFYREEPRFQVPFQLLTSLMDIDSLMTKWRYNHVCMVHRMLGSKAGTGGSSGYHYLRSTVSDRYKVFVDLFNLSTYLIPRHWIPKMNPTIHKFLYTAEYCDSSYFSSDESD
Description: The TDO inhibitor Screening Assay kit (BPS Bioscience) was used to test for TDO inhibition by Compound Nos. D42 and D46. The protocol is similar to IDO1 assay. TDO reaction solution (90 μl) was aliquoted into each well of a 96-well plate. 5 μl of compound solution in 10% DMSO was added to each well. 5 μl 10% DMSO was added to the positive control and blank wells. Human TDO His-Tag was diluted in 1×TDO Assay buffer at 50 ng/μl. The reaction was initiated by adding 5 μl diluted TDO. 1×TDO assay buffer was added to the blank well. After incubating at room temperature for 1.5 hours, the absorption was measured at the wavelength of 321 nm. The IC50 was calculated as described for TDO inhibition. The relative activity and IC50 was calculated as described above in Examples 3 and 4.

Human IDO1 His-Tag = molecular target: T3, Human IDO1 His-Tag (Homo sapiens, UniProt P14902); experiment: IDO1 Inhibitor Screening Assay (BPS Bioscience kit, absorption at 321 nm); details: room temperature, 3 hours; N.D. = Not Detected
T3 construct: purchased BPS Bioscience
T3 sequence (P14902 whole entry): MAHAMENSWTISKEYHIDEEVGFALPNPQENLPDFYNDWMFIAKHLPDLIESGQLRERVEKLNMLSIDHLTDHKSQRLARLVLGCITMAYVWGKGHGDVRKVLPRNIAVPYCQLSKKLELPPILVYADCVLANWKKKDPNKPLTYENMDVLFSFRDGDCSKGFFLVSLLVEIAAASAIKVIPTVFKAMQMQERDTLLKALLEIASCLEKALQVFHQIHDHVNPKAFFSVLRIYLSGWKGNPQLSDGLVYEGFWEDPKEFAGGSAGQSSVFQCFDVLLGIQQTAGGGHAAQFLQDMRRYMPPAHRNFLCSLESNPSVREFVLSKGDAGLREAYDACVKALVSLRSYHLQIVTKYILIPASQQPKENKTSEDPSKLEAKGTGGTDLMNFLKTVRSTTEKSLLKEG
Description: IDO1 (indoleamine 2,3-dioxygenase-1) catalyzes the oxidative cleavage of the pyrrole ring of tryptophan to yield N′-formylkynurenine. The amount of N′-formylkynurenine product is able to be detected by the absorption at the wavelength of 321 nm. IDO1 inhibitor Screening Assay kit (BPS Bioscience) was used to test the compound. The assay was performed as described in the assay protocol.
IDO1 reaction solution (90 μl) was aliquoted into each well of a 96-well plate. 5 μl of the compound solution in 10% DMSO was added to each well. 5 μl 10% DMSO was added to the positive control and blank wells. Human IDO1 His-Tag was diluted to 40 ng/μl in 1×IDO1 Assay buffer. The reaction was initiated by adding 5 μl of diluted IDO1. In the blank well, only 1×IDO1 assay buffer was added instead. After incubating at room temperature for 3 hours, the absorption was measured at the wavelength of 321 nm using a microplate reader.
The relative activity, I, was the ratio of former to later, i.e. X/Y, expressed in percentile. The IC50 was the concentration of the compounds when X/Y equals 50 and calculated based on the dose-response curve.

Row | IDO2 inhibition (Human IDO2 His-Tag) | IC50 (Human TDO His-Tag) | IC50 (Human IDO1 His-Tag) | SMILES
1 | No IDO2 inhibition was detected | 0.064 µM | 325 nM | N#Cc1ccc(NC(=O)NCCC2c3ccccc3-c3cncn32)cc1 (stereo not drawn) [D46, 1-(2-(5H-imidazo[5,1-a]isoindol-5-yl)ethyl)-3-(4-cyanophenyl)urea]
2 | No IDO2 inhibition was detected | 0.064 µM | 61 nM | N#Cc1ccc(NC(=O)NCC2c3ccccc3-c3cncn32)cc1 (stereo not drawn) [D42, 1-((5H-imidazo[5,1-a]isoindol-5-yl)methyl)-3-(4-cyanophenyl)urea]
